# Assays:
# [1] = tested on: cervical fibroblasts; test: Effect on Ca2+ levels in cervical fibroblasts (Fluo-4 fluorescence); type: cell-based, human; settings: cultures from non-pregnant and term pregnant patients
# Description: Fibroblast cultures were established from non-pregnant, and term pregnant patients and from women delivered vaginally (after partus patients). The cells were cultured in monolayer cultures with minimum essential medium with 10% donor calf serum. For experiments these cells were plated on cover glasses with at semi-confluence and loaded with Fluo-4 in phosphate buffered saline containing 10 mM HEPES for 30 min. Initially phosphate buffered saline containing 10 mM HEPES (HEPES-buffer) was pumped into the observation chamber for 30 s, then KCl in the same buffer was pumped for 60 s followed by HEPES-buffer for 30 s. Then 10 ng of PDGF/ml in HEPES-buffer was added. The fluorescence was monitored continuously for 3 min. In other experiments PDGF was replaced with 100 μg of HS6. […] This effect is postulated to be of importance at partus for final preparation of cervix for delivery.
# [2] = tested on: human uterine strips (myometrial strip); test: Contractile assay on uterine strips in organ bath; settings: 1 U oxytocin only
# Description: In the following test heparan sulfate HS2 and HS6 obtained from the heparin side fraction TB 001-91 SVCM 950130 (Kabi-Pharmacia, Sweden) were tested. HS6 differs from HS2 by being more highly sulfated and having more L-iduronic acid residues (see Table 1 above).
# Uterine samples were obtained from women undergoing elective caesarian section at 38-39 weeks of gestation. The samples measured 20×10×10 mm and were taken from the upper part of the isthmic incision. The biopsy was immediately placed in ice-cold Krebs-Ringer buffer. The biopsies were cut into longitudinal strips, length 10-15 mm and breadth about 5 mm. The strip was mounted vertically in an organ bath of 37° C. containing 2 ml Krebs-Ringer solution. The solution was bubbled with a mixture of 95% O2 and 5% CO2 in order to maintain a pH in the bath of 7.35-7.45. Experiments were carried out after the strips had equilibrated to a stable contractile state, usually within 1-2 h after mounting. The contractions were recorded isometrically with a Grass model 7 polygraph (Grass Instr. Co., Quincy, Mass., USA). All samples were exposed to 100 mM KCl during the experiment in order to get a standardized maximum response. […]
# This procedure was repeated using 6 μg of heparan sulfate. […] The contractions were recorded and evaluated by integrating the surface under the curve. […]
Molecule,Change of fluorescence (intracellular Ca2+) [1],"Relative contractility of myometrial strip, oxytocin control [2]"
[Cl-].[K+] [KCl],No change of fluorescence,
"CC[C@H](C)[C@@H]1NC(=O)[C@H](Cc2ccc(O)cc2)NC(=O)[C@@H](N)CSSC[C@@H](C(=O)N2CCC[C@H]2C(=O)N[C@@H](CC(C)C)C(=O)NCC(N)=O)NC(=O)[C@H](CC(N)=O)NC(=O)[C@H](CCC(N)=O)NC1=O [Oxytocin, oxytocin]",,226 % of unstimulated control
PDGF,No change of fluorescence,
